Results published in article PMC5976239 (Journal of medicinal chemistry, 2017).
Values after ≈ are worked out from the molar mass of the structure shown. Read-outs that look alike come from different tables or passages of the source.

What was measured:
[1] = system: C. albicans ATCC 64124(R) (B); assay: MIC determination by in vitro antifungal assay; format: cell-based; conditions: Candida albicans, ATCC64124, 48 h
[2] = system: Aspergillus nidulans ATCC 38163 (L); assay: MIC determination against filamentous fungi; format: cell-based; conditions: ATCC38163, 48 h, read-out: MIC (MIC-0)
[3] = system: Aspergillus nidulans ATCC 38163 (L); assay: MIC determination in the presence and absence of FBS; format: cell-based; conditions: ATCC38163, read-out: MIC, Aspergillus nidulans ATCC 38163 (L) (no FBS)
[4] = system: Candida albicans ATCC 10231 (A); assay: as above; format: cell-based; conditions: for MIC: Candida albicans, ATCC10231, read-out: MIC, Candida albicans ATCC 10231 (A) (no FBS); for antifungal activity in the presence of FBS (in words): strains A, J, and L, +10% FBS versus no FBS
[5] = system: Aspergillus terreus ATCC MYA-3633 (M); assay: MIC determination against filamentous fungi; format: cell-based; conditions: 48 h, read-out: MIC (MIC-0)
[6] = system: C. albicans ATCC 90819(R) (D); assay: MIC determination by in vitro antifungal assay; format: cell-based; conditions: Candida albicans, ATCC90819, 48 h
[7] = system: C. albicans ATCC MYA-1003(R) (G); assay: MIC determination by in vitro antifungal assay; format: cell-based; conditions: Candida albicans, 48 h
[8] = system: Candida albicans ATCC 10231 (A); assay: MIC determination by in vitro antifungal assay; format: cell-based; conditions: ATCC10231, 48 h, read-out: MIC (MIC-0)
[9] = system: A549; assay: In vitro cytotoxicity assay; format: cell-based; conditions: 24 h
[10] = system: BEAS-2B; assay: In vitro cytotoxicity assay; format: cell-based; conditions: 24 h; for toxicity to mammalian cells (in words): 18 and 20 at 7.8 µg/mL
[11] = Hemolytic activity assay; format: cell-based; conditions: mouse, murine red blood cells (mRBCs)
[12] = system: HEK-293; assay: In vitro cytotoxicity assay; format: cell-based; conditions: 24 h; for toxicity to mammalian cells (in words): 18 and 20 at 7.8 µg/mL
[13] = system: C. albicans ATCC 64124 (strain B) biofilms; assay: Biofilm assay
[14] = system: C. albicans ATCC MYA-2876(S) (C); assay: MIC determination by in vitro antifungal assay; format: cell-based; conditions: Candida albicans, 48 h
[15] = system: C. albicans ATCC MYA-1237(R) (F); assay: MIC determination by in vitro antifungal assay; format: cell-based; conditions: Candida albicans, 48 h
[16] = system: Aspergillus flavus ATCC MYA-3631 (K); assay: MIC determination against filamentous fungi; format: cell-based; conditions: 48 h, read-out: MIC (MIC-0)
[17] = system: C. albicans ATCC MYA-2310(S) (E); assay: MIC determination by in vitro antifungal assay; format: cell-based; conditions: Candida albicans, 48 h
[18] = system: C. albicans, non-albicans Candida, and Aspergillus strains; assay: Antifungal activity over the panel of 13 fungal strains; format: cell-based; conditions: read-out: antifungal activity class based on MIC values
[19] = system: C. parapsilosis ATCC 22019 (strain J); assay: Time-kill assay; format: cell-based, Candida parapsilosis; conditions: 24 h, at up to 8× MIC
[20] = system: C. albicans ATCC 10231 (strain A); assay: Time-kill assay; format: cell-based, Candida albicans; conditions: 24 h, compound 20 at 4× MIC, VOR at 1× and 4× MIC
[21] = system: C. albicans ATCC 10231 (strain A); assay: Membrane permeabilization assay using propidium iodide staining; format: cell-based, Candida albicans; conditions: 1 h at 35 °C; 20 and 26 at 4 × MIC, KANB (C14) at 2 × MIC ([…]), FLC at 7.8 µg/mL
[22] = system: C. glabrata ATCC 2001 (strain H); assay: Time-kill assay; format: cell-based, Candida glabrata; conditions: 24 h, compound 22 at 4× MIC, VOR at 1× and 4× MIC

MIC ([1]; read-out: MIC (MIC-0)) [µg/mL]	MIC [2] [µg/mL]	MIC [3] [µg/mL]	MIC [4] [µg/mL]	MIC [5] [µg/mL]	MIC ([6]; read-out: MIC (MIC-0)) [µg/mL]	MIC ([7]; read-out: MIC (MIC-0)) [µg/mL]	MIC [8] [µg/mL]	increase in MIC in biofilms (SMIC50 and SMIC80 versus MIC in liquid cultures) [13]	MIC [16] [µg/mL]	SMILES	toxicity to mammalian cells (in words) [9]	toxicity to mammalian cells (in words) [10]	hemolysis at 60 min, 7.8 µg/mL [11] [%]	toxicity to mammalian cells (in words) [12]	antifungal activity in the presence of FBS (in words) [4]	propidium iodide (PI) dye uptake by fungal cells [21]	also measured
31.3 (≈ 71.9 µM)	3.9 (≈ 8.95 µM)			3.9 (≈ 8.95 µM)	15.6 (≈ 35.8 µM)	0.975 to 31.3 (≈ 2.24 to 71.9 µM)	3.9 (≈ 8.95 µM)		1.95 (≈ 4.48 µM)	CCCCCCCCN1CCN(CC(O)(Cn2cncn2)c2ccc(F)cc2F)CC1 (stereo not shown) [Compound 18, 2-(2,4-Difluorophenyl)-1-(1H-1,2,4-triazol-1-yl)-3-(4-octylpiperazine)propan-2-ol]	nontoxic to A549 at up to 15.5 µg/mL	some toxicity		some toxicity			MIC ([14]; read-out: MIC (MIC-0)): 31.3 µg/mL (≈ 71.9 µM); MIC ([15]; read-out: MIC (MIC-0)): 31.3 µg/mL (≈ 71.9 µM); hemolysis at 60 min, 62.5 µg/mL [11]: < 10%; MIC ([17]; read-out: MIC (MIC-0)): > 31.3 µg/mL
3.9 (≈ 8.41 µM)					3.9 (≈ 8.41 µM)	3.9 (≈ 8.41 µM)		4–16 fold	0.24 (≈ 0.518 µM)	CCCCCCCCCCN1CCN(CC(O)(Cn2cncn2)c2ccc(F)cc2F)CC1 (stereo not shown) [Compound 20, 2-(2,4-Difluorophenyl)-1-(1H-1,2,4-triazol-1-yl)-3-(4-decylpiperazine)propan-2-ol]	no toxicity at up to 7.8 µg/mL	some toxicity		some toxicity	retained their full antifungal activity	neither compound 20 nor 26 (at 4 × MIC) induced cellular uptake of PI dye	fungistatic or fungicidal activity (time-kill) [19]: fungistatic; fungistatic or fungicidal activity (time-kill) [20]: fungicidal
								1–2 fold		CCCCCCCCCCCCN1CCN(CC(O)(Cn2cncn2)c2ccc(F)cc2F)CC1 (stereo not shown) [Compound 22, 2-(2,4-Difluorophenyl)-1-(1H-1,2,4-triazol-1-yl)-3-(4-dodecylpiperazine)propan-2-ol]			> 50		retained their full antifungal activity		fungistatic or fungicidal activity (time-kill) [19]: fungistatic; cell survival ([9]; 7.8 µg/mL): less than 40%; cell survival ([10]; 7.8 µg/mL): less than 40%; cell survival ([12]; 7.8 µg/mL): less than 40%; fungistatic or fungicidal activity (time-kill) [22]: fungicidal

More lines, now with the values behind:

SMILES	MIC ([1]; read-out: MIC (MIC-0)) [µg/mL]	MIC [2] [µg/mL]	MIC [3] [µg/mL]	MIC [4] [µg/mL]	MIC [5] [µg/mL]	MIC ([6]; read-out: MIC (MIC-0)) [µg/mL]	MIC ([7]; read-out: MIC (MIC-0)) [µg/mL]	MIC [8] [µg/mL]	increase in MIC in biofilms (SMIC50 and SMIC80 versus MIC in liquid cultures) [13]	MIC [16] [µg/mL]	toxicity to mammalian cells (in words) [9]	toxicity to mammalian cells (in words) [10]	hemolysis at 60 min, 7.8 µg/mL [11] [%]	toxicity to mammalian cells (in words) [12]	antifungal activity in the presence of FBS (in words) [4]	propidium iodide (PI) dye uptake by fungal cells [21]	also measured
C[C@@H]1[C@H](O)[C@@H](C)/C=C/C=C/C=C/C=C/C=C/C=C/C=C/[C@H](O[C@@H]2O[C@H](C)[C@@H](O)[C@H](N)[C@@H]2O)C[C@@H]2O[C@](O)(C[C@@H](O)C[C@@H](O)[C@H](O)CC[C@@H](O)C[C@@H](O)CC(=O)O[C@H]1C)C[C@H](O)[C@H]2C(=O)O [AmB, amphotericin B, reference compound]	3.9 (≈ 4.22 µM)	3.9 (≈ 4.22 µM)	3.9 (≈ 4.22 µM)	3.9 (≈ 4.22 µM)	3.9 (≈ 4.22 µM)	0.975 (≈ 1.06 µM)	3.9 (≈ 4.22 µM)	3.9 (≈ 4.22 µM)									
CCCCCCCCCCCCN1CCNCC1 [Compound 7]		1.95 (≈ 7.66 µM)	1.95 (≈ 7.66 µM)	1.95 (≈ 7.66 µM)				1.95 (≈ 7.66 µM)	1–4 fold		toxic	toxic	52	toxic			
CCCCCCCCCCCCCCN1CCNCC1 [Compound 9, 1-Tetradecyl Piperazine]	0.975 (≈ 3.45 µM)	0.975 (≈ 3.45 µM)	0.975 (≈ 3.45 µM)	0.975 (≈ 3.45 µM)	0.975 (≈ 3.45 µM)	1.95 (≈ 6.9 µM)	1.95 (≈ 6.9 µM)	0.975 (≈ 3.45 µM)	16–64 fold	0.975 (≈ 3.45 µM)	toxic	toxic	93	toxic			MIC ([14]; read-out: MIC (MIC-0)): 0.975 µg/mL (≈ 3.45 µM); MIC ([15]; read-out: MIC (MIC-0)): 1.95 µg/mL (≈ 6.9 µM); MIC ([17]; read-out: MIC (MIC-0)): 0.975 µg/mL (≈ 3.45 µM); MIC [18]: 0.015 to 1.95 µg/mL (≈ 0.0531 to 6.9 µM)
CCCCCCCCCCCCN1CCN(CC(O)(Cn2cncn2)c2ccc(Cl)cc2Cl)CC1 (stereo not shown) [Compound 26, 2-(2,4-Dichlorophenyl)-1-(1H-1,2,4-triazol-1-yl)-3-(4-dodecylpiperazine)propan-2-ol]	7.8 (≈ 14.9 µM)								2–4 fold				85		retained their full antifungal activity	neither compound 20 nor 26 (at 4 × MIC) induced cellular uptake of PI dye	
OC(Cn1cncn1)(Cn1cncn1)c1ccc(F)cc1F [FLC, fluconazole, reference compound]																did not allow for PI uptake	MIC ([14]; read-out: MIC (MIC-2)): 15.6 µg/mL (≈ 50.9 µM); MIC ([1]; read-out: MIC (MIC-2)): > 125 µg/mL; MIC ([6]; read-out: MIC (MIC-2)): > 125 µg/mL; MIC ([17]; read-out: MIC (MIC-2)): > 125 µg/mL
CCCCCCCCCCCCCCOC[C@H]1O[C@H](O[C@@H]2[C@@H](O)[C@H](O[C@H]3O[C@H](CN)[C@@H](O)[C@H](O)[C@H]3N)[C@@H](N)C[C@H]2N)[C@H](O)[C@@H](N)[C@@H]1O [KANB (C14), reference compound]																significantly increased PI dye uptake	
C[C@@H](c1ncncc1F)[C@](O)(Cn1cncn1)c1ccc(F)cc1F [VOR, voriconazole, reference compound]																	MIC ([14]; read-out: MIC (MIC-2)): 1.95 µg/mL (≈ 5.58 µM); MIC ([1]; read-out: MIC (MIC-2)): 3.9 µg/mL (≈ 11.2 µM); MIC ([15]; read-out: MIC (MIC-2)): 7.8 µg/mL (≈ 22.3 µM); fungistatic or fungicidal activity (time-kill) [20]: fungistatic; MIC ([6]; read-out: MIC (MIC-2)): 1.95 µg/mL (≈ 5.58 µM); MIC ([7]; read-out: MIC (MIC-2)): 1.95 µg/mL (≈ 5.58 µM); MIC ([17]; read-out: MIC (MIC-2)): 0.975 µg/mL (≈ 2.79 µM); fungistatic or fungicidal activity (time-kill) [22]: fungistatic
